Measured values from article PMC6009973 (Journal of Enzyme Inhibition and Medicinal Chemistry, 2017).

Target: T1, CpeCA (Clostridium perfringens, UniProt A0A0H2YPC2)
T1 construct: gene CPF_0414
Details: read-out: CpeCA^bβ; CO2 1.7-17 mM, 20 mM TRIS pH 8.3, 20 mM Na2SO4, 15 min pre-incubation at room temperature; errors 5-10%

T1 sequence (A0A0H2YPC2 1-190): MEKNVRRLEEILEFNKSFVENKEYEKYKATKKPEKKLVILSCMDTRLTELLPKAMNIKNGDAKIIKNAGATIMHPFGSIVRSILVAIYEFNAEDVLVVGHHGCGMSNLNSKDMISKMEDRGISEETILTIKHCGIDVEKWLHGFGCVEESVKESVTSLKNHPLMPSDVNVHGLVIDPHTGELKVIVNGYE

SMILES: CCN[C@H]1CN(CCCOC)S(=O)(=O)c2sc(S(N)(=O)=O)cc21 [BRZ, brinzolamide]
- Ki: 121 nM

SMILES: NS(=O)(=O)c1nnc(NS(=O)(=O)c2ccccc2)s1 [BZA, benzolamide]
- Ki: 497 nM

SMILES: Cc1ccc(-c2cc(C(F)(F)F)nn2-c2ccc(S(N)(=O)=O)cc2)cc1 [CLX, celecoxib]
- Ki: 312 nM

SMILES: NS(=O)(=O)c1cc(Cl)c(Cl)c(S(N)(=O)=O)c1 [DCP, dichlorophenamide]
- Ki: 68 nM

SMILES: NS(=O)(=O)c1cc2c(cc1Cl)NCNS2(=O)=O [HCT, hydrochlorothiazide]
- Ki: 219 nM

SMILES: NS(=O)(=O)c1ccc(S(=O)(=O)Nc2cccc3c(Cl)c[nH]c23)cc1 [IND, indisulam]
- Ki: 173 nM

SMILES: CC(=O)N=c1sc(S(N)(=O)=O)nn1C [MZA, methazolamide]
- Ki: 113 nM

SMILES: O=C1NS(=O)(=O)c2ccccc21 [SAC, saccharin]
- Ki: > 100000 nM

SMILES: CCN1CCCC1CNC(=O)c1cc(S(N)(=O)=O)ccc1OC (centres unmarked) [SLP, sulpiride]
- Ki: 389 nM

SMILES: NS(=O)(=O)c1ccc(N2CCCCS2(=O)=O)cc1 [SLT, sulthiame]
- Ki: 63.1 nM

SMILES: CC1(C)O[C@@H]2[C@@H](CO[C@@]3(COS(N)(=O)=O)OC(C)(C)O[C@@H]23)O1 [TPM, topiramate]
- Ki: 204 nM

SMILES: Cc1onc(-c2ccccc2)c1-c1ccc(S(N)(=O)=O)cc1 [VLX, valdecoxib]
- Ki: 160 nM

SMILES: NS(=O)(=O)Cc1noc2ccccc12 [ZNS, zonisamide]
- Ki: > 100000 nM

SMILES: NS(=O)(=O)c1ccc(CCNS(=O)(=O)c2ccc([N+](=O)[O-])cc2CO)cc1 [compound 24, 4-(2-hydroxymethyl-4-nitrophenyl-sulphonamido)ethylbenzenesulphonamide]
- Ki: 51.2 nM
